Test results taken from ChEMBL document CHEMBL3396995, “Synthesis and biological evaluation of novel pyrrolidine acid analogs as potent dual PPARα/γ agonists” (Bioorg Med Chem Lett, 2015).

How the values were obtained:
[1] = biological target: T1, Peroxisome proliferator-activated receptor alpha (Homo sapiens, UniProt Q07869); test: Agonist activity at GAL4 tagged human PPARalpha ligand binding domain expressed in HEK293 cells by luciferase reporter gene assay; format: cell-based
T1 sequence (Q07869 whole entry): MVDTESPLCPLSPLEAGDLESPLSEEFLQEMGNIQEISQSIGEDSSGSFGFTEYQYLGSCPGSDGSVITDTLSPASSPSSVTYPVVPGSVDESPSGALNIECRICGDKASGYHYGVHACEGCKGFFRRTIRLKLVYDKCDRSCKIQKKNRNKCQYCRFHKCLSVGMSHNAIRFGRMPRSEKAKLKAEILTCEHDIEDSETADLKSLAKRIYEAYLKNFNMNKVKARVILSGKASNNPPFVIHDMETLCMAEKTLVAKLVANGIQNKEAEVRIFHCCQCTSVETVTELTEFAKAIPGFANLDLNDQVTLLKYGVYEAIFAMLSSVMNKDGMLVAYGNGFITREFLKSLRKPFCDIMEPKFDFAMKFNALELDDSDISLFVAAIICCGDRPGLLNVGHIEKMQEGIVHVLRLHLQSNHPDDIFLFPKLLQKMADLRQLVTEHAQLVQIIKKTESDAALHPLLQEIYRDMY

[2] = biological target: T1, Peroxisome proliferator-activated receptor alpha; test: Binding affinity to PPARalpha (unknown origin) using fluorescein-tagged dual PPARalpha/gamma activator by homogeneous fluorescence polarization binding assay
[3] = biological target: T2, Peroxisome proliferator-activated receptor gamma (Homo sapiens, UniProt P37231); test: Agonist activity at GAL4 tagged human PPARgamma ligand binding domain expressed in HEK293 cells by luciferase reporter gene assay; format: cell-based
T2 sequence (P37231 whole entry): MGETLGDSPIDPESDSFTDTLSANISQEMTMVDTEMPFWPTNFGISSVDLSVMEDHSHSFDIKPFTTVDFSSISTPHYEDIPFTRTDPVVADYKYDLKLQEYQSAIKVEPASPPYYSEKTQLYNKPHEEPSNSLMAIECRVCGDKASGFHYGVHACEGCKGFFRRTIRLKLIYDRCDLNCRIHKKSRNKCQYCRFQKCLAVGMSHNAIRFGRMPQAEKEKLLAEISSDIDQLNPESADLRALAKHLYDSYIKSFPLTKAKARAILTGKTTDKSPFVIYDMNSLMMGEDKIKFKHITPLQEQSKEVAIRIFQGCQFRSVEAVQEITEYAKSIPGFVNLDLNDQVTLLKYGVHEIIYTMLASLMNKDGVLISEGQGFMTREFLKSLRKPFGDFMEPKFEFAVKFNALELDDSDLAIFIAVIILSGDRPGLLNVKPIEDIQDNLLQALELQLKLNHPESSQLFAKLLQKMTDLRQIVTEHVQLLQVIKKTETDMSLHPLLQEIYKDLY

[4] = biological target: T2, Peroxisome proliferator-activated receptor gamma
Description: Binding affinity to PPARgamma (unknown origin) using fluorescein-tagged dual PPARalpha/gamma activator by homogeneous fluorescence polarization binding assay

Compound	EC50 ([1]; read-out: EC50) [nM]	IC50 [2] [nM]	EC50 [3] [nM]	IC50 [4] [nM]	EC50 ([1]; hek293)
Cc1oc(-c2ccccc2)nc1CCOc1ccc(C[C@@H]2CN(c3ncccn3)C[C@@H]2C(=O)O)cc1 (racemic)	2910	> 10000	1060	2040	
CCOC(=O)N1C[C@H](CC(=O)O)[C@@H](c2cccc(OCCc3nc(-c4ccccc4)oc3C)c2)C1 (racemic)	8100	> 10000	9680	5460	
CCOC(=O)N1C[C@@H](Cc2ccc(OCCc3nc(-c4ccccc4)oc3C)cc2)[C@@H](C(=O)O)C1 (racemic)	6	2020	300	2680	
CCOC(=O)N1C[C@H](Cc2cccc(OCCc3nc(-c4ccccc4)oc3C)c2)[C@@H](C(=O)O)C1 (racemic)	150	2120	2850		
Cc1oc(-c2ccccc2)nc1CCOc1ccc(C[C@H]2CN(c3nccc(C(F)(F)F)n3)C[C@H]2C(=O)O)cc1	> 10000	> 10000	> 10000	1530	
Cc1oc(-c2ccccc2)nc1CCOc1ccc([C@H]2CN(C(=O)Oc3ccccc3)C[C@@H]2C(=O)O)cc1 (racemic)	2580	2860	10	5860	
Cc1oc(-c2ccccc2)nc1CCOc1cccc(C[C@@H]2CN(c3ccccc3)C[C@@H]2C(=O)O)c1 (racemic)	20	40	3410	220	
Cc1oc(-c2ccccc2)nc1CCOc1ccc(CC[C@H]2CN(C(=O)Oc3ccccc3)C[C@@H]2C(=O)O)cc1 (racemic)	980	3250	> 10000	340	
Cc1oc(-c2ccccc2)nc1CCOc1cccc(C[C@H]2CN(C(=O)Oc3ccccc3)C[C@@H]2CC(=O)O)c1 (racemic)	850	3090	> 10000	210	
CCOC(=O)N1C[C@@H](CCc2cccc(OCCc3nc(-c4ccccc4)oc3C)c2)[C@@H](C(=O)O)C1 (racemic)	200	2690	710	490	
Cc1oc(-c2ccccc2)nc1CCOc1cccc(C[C@H]2CN(c3ccccc3)C[C@H]2C(=O)O)c1	680	320	> 10000	140	
CCOC(=O)N1C[C@H](C(=O)O)[C@H](c2cccc(OCCc3nc(-c4ccccc4)oc3C)c2)C1 (racemic)	20000	> 10000	24000	> 10000	
CCOC(=O)N1C[C@H](C(=O)O)[C@@H](c2ccc(OCCc3nc(-c4ccccc4)oc3C)cc2)C1 (racemic)	> 15000	> 10000	> 32000	> 10000	
CCOC(=O)N1C[C@@H](Cc2cccc(OCCc3nc(-c4ccccc4)oc3C)c2)[C@@H](C(=O)O)C1	3	260	9		
Cc1oc(-c2ccccc2)nc1CCOc1ccc(C[C@@H]2CN(c3nc(C(F)(F)F)co3)C[C@@H]2C(=O)O)cc1 (racemic)	1470	5010	> 30000	50	
Cc1oc(-c2ccccc2)nc1CCOc1cccc(C[C@H]2CN(C(=O)Oc3ccccc3)C[C@@H]2C(=O)O)c1 (racemic)	2590	3090	6170	3630	
CCOC(=O)N1C[C@@H](Cc2cccc(OCCc3nc(-c4ccccc4)oc3C)c2)[C@@H](CC(=O)O)C1	2870	5550	> 10000		
Cc1oc(-c2ccccc2)nc1CCOc1ccc(C[C@@H]2CN(c3nccc(C(F)(F)F)n3)C[C@H]2C(=O)O)cc1	4410	> 50000	> 30000	1160	
Cc1oc(-c2ccccc2)nc1CCOc1ccc(CC[C@@H]2CN(C(=O)Oc3ccccc3)C[C@@H]2C(=O)O)cc1 (racemic)	10	480	160	90	
Cc1oc(-c2ccccc2)nc1CCOc1cccc([C@H]2CN(C(=O)Oc3ccccc3)C[C@@H]2CC(=O)O)c1 (racemic)	11700	> 10000	14600	1820	

Compound	EC50 ([1]; read-out: EC50) [nM]	IC50 [2] [nM]	EC50 [3] [nM]	IC50 [4] [nM]	EC50 ([1]; hek293)
Cc1oc(-c2ccccc2)nc1CCOc1cccc([C@@H]2CN(C(=O)Oc3ccccc3)C[C@@H]2C(=O)O)c1 (racemic)	1650	> 10000	5650	> 10000	
CCOC(=O)N1C[C@H](CC(=O)O)[C@H](c2cccc(OCCc3nc(-c4ccccc4)oc3C)c2)C1 (racemic)	1130	990	20	910	
CCOC(=O)N1C[C@H](CC(=O)O)[C@@H](Cc2cccc(OCCc3nc(-c4ccccc4)oc3C)c2)C1 (racemic)	6	2120	> 10000		
Cc1oc(-c2ccccc2)nc1CCOc1cccc(C[C@@H]2CN(c3ccccc3)C[C@@H]2C(=O)O)c1	50	70	3440	80	
Cc1oc(-c2ccccc2)nc1CCOc1cccc(C[C@H]2CN(C(=O)Oc3ccccc3)C[C@H]2C(=O)O)c1	950	660	13300	590	
Cc1oc(-c2ccccc2)nc1CCOc1ccc(C[C@H]2CN(c3nccc(C(F)(F)F)n3)C[C@@H]2C(=O)O)cc1	1000	1120	> 30000	3570	
CCOC(=O)N1C[C@@H](CCc2ccc(OCCc3nc(-c4ccccc4)oc3C)cc2)[C@@H](C(=O)O)C1 (racemic)	20	3270	540	690	
Cc1oc(-c2ccccc2)nc1CCOc1cccc([C@@H]2CN(C(=O)Oc3ccccc3)C[C@@H]2CC(=O)O)c1 (racemic)	3550	4020	4800	240	
CCOC(=O)N1C[C@H](CC(=O)O)[C@H](c2ccc(OCCc3nc(-c4ccccc4)oc3C)cc2)C1 (racemic)		> 10000		> 10000	
Cc1oc(-c2ccccc2)nc1CCOc1cccc(C[C@H]2CN(c3nccc(C(F)(F)F)n3)C[C@H]2C(=O)O)c1	> 10000	1120	> 10000	110	
Cc1oc(-c2ccccc2)nc1CCOc1cccc(C[C@@H]2CN(c3nccc(C(F)(F)F)n3)C[C@@H]2C(=O)O)c1	14	20	2500	40	
Cc1oc(-c2ccccc2)nc1CCOc1cccc(C[C@@H]2CN(C(=O)Oc3ccccc3)C[C@@H]2C(=O)O)c1	4	70	2000	490	
CCOC(=O)N1C[C@H](C(=O)O)[C@H](c2ccc(OCCc3nc(-c4ccccc4)oc3C)cc2)C1 (racemic)	> 15000	> 10000	> 32000	> 10000	
Cc1ccnc(N2C[C@@H](Cc3ccc(OCCc4nc(-c5ccccc5)oc4C)cc3)[C@@H](C(=O)O)C2)n1 (racemic)	170	3980	630	450	
Cc1oc(-c2ccccc2)nc1CCOc1ccc([C@@H]2CN(C(=O)Oc3ccccc3)C[C@@H]2CC(=O)O)cc1 (racemic)	> 15000	> 15000	4180	8310	
Cc1oc(-c2ccccc2)nc1CCOc1ccc(C[C@@H]2CN(c3nccc(C(F)(F)F)n3)C[C@@H]2C(=O)O)cc1 (racemic)	30	740	50	30	
Cc1oc(-c2ccccc2)nc1CCOc1cccc(CC[C@@H]2CN(C(=O)Oc3ccccc3)C[C@@H]2C(=O)O)c1 (racemic)	8	1060	630	210	
CCOC(=O)N1C[C@H](Cc2cccc(OCCc3nc(-c4ccccc4)oc3C)c2)[C@H](C(=O)O)C1	10900	> 10000	> 10000		
COc1ccc(OC(=O)N2[C@H](C(=O)O)CC[C@H]2c2ccc(OCCc3nc(-c4ccccc4)oc3C)cc2)cc1			50		Not Active
CCOC(=O)N1C[C@@H](Cc2cccc(OCCc3nc(-c4ccccc4)oc3C)c2)[C@@H](C(=O)O)C1 (racemic)	10	170	750		
